Experimental data from PubChem BioAssay AID652153 (Molecular Libraries Program, Specialized Chemistry Center, …, 2013).
Calls of active or inactive are those of the source. The rule behind the calls is not given here.

Target: Rac GTPase-activating protein 1 (Homo sapiens) (UniProt Q9H0H5)
Assay: MgcRacGAP inhibitors, selectivity among RhoGAPs, dose response, selectivity assay, biochemical (AID 652153)
Conditions: MgcRacGAP GAP activity on Rac1F28L, Biomol green phosphate

Chain of Rac GTPase-activating protein 1 (Homo sapiens) (Q9H0H5 whole entry, looked up): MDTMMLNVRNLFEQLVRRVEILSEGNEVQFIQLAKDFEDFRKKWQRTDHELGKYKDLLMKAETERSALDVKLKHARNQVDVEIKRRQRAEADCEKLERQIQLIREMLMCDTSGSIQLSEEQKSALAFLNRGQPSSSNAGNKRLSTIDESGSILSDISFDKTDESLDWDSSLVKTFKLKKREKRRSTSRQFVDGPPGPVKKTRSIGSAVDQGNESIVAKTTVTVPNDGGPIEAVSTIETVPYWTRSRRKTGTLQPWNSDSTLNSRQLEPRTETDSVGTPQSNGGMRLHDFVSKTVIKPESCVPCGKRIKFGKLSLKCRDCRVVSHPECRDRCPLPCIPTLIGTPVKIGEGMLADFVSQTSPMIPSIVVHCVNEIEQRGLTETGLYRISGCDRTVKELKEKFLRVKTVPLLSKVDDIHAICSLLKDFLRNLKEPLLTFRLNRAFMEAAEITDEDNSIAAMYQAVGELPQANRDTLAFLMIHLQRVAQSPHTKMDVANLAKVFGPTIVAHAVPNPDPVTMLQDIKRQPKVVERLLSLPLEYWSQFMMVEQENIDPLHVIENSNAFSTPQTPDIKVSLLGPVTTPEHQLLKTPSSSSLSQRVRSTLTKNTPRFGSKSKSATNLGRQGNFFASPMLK

Row | Structure (SMILES) | IC50
1 | O=c1c2ccccc2sn1-c1ccc(Cl)cc1 | inactive
2 | CC1=NNC(=O)C1Br (stereo unspecified) | inactive
3 | O=c1c2ccccc2sn1-c1ccccc1F | inactive
4 | Nc1n[nH]c(=S)n1/N=C1/C(=O)Nc2ccccc21 | inactive
5 | O=c1c2ccccc2sn1-c1cccc(Cl)c1 | 690 nM
6 | O=C(Nc1ccccc1Cl)/C(Cl)=C(\Cl)S(=O)c1ccccc1 (stereo unspecified) | inactive
7 | CN(C)c1nc(=NCc2cccs2)ss1 | inactive
8 | O=c1c2cc(F)ccc2sn1-c1ccccc1Cl | 920 nM
9 | CCN(CC)c1ccc(C(=C2C=CC(=[N+](CC)CC)C=C2)c2ccc(N(CC)CC)cc2)cc1 | inactive
10 | O=c1c2ccccc2sn1-c1ccc(Cl)cc1Cl | inactive
11 | CN(C)c1ccc(/C=C/c2cc[n+](C)c3ccccc23)cc1 | inactive
12 | O=c1c2cc(F)ccc2sn1-c1ccccc1 | inactive
13 | Cc1cc(C)c2c(=N)c3ccccc3n(CCCCCCCCn3c4ccccc4c(=N)c4c(C)cc(C)nc43)c2n1 | inactive
14 | O=C(O)c1cc(N2N=C(C(F)(F)F)/C(=C/C=C/c3ccco3)C2=O)ccc1Cl | inactive
15 | C[n+]1c(-c2ccc(C=NNC(=O)c3ccc(C(=O)NN=Cc4ccc(-c5cn6ccccc6[n+]5C)cc4)cc3)cc2)cn2ccccc21 | inactive
16 | O=C1NC(=S)N(c2ccccc2)C(=O)/C1=C/c1ccco1 | inactive
17 | CCN1CCN(Cc2ccc(NC(=O)c3ccc(C)c(/C=C/c4cnc(Nc5cc(N6CCNCC6)nc(C)n5)cn4)c3)cc2C(F)(F)F)CC1 | inactive
18 | Cn1ccc(=Nc2ccc(NC(=O)c3ccc(N=c4ccn(C)c5ccc([N+](=O)[O-])cc45)cc3)cc2)cc1 | 939 nM
19 | O=C1C(Cl)=C(NC(=O)c2ccccc2)C(=O)C(Cl)=C1NC(=O)c1ccccc1 | inactive
20 | COc1ccc(-n2sc3ccc(F)cc3c2=O)cc1 | inactive
21 | COc1ccc(NC2CCCN(C(=O)C3(C)CCCCC3)C2)cc1 (stereo unspecified) | inactive
22 | COc1ccc(Nc2ccc3ccccc3c2)cc1 | inactive
23 | Cc1ccc(-n2sc3cc(F)ccc3c2=O)c(C)c1 | inactive

Row | Structure (SMILES) | IC50
24 | O=C1C=CC(=O)c2c(O)c(N3CCN(CCOCCO)CC3)c(Br)c(O)c21 | inactive
25 | O=c1c2sc3ccccc3c2[nH]c(=S)n1CCN1CCOCC1 | inactive
26 | O=C1C=CC(=O)c2c(O)c(N3CCN(CCO)CC3)c(Cl)c(O)c21 | inactive
27 | COc1ccc(/C=N/Nc2cc(C)nc3ccc(OC)cc23)c(OC)c1 | inactive
28 | COc1ccc(-n2sc3ccccc3c2=O)cc1 | inactive
29 | O=C1C(=Cc2ccco2)CCC1=Cc1ccco1 | inactive
30 | Nc1ccc(OCc2ccco2)cc1 | inactive
31 | O=C(O)c1cc(N2C(=O)C=CC2=O)cc(N2C(=O)C=CC2=O)c1 | inactive
32 | CN(C)c1ccc(C=c2c3cc(O)ccc3n3c2cc(-c2ccccc2)[n+]3C)cc1 | inactive
33 | COC(=O)c1cccc(-n2sc3ccccc3c2=O)c1 | inactive
34 | O=C(O)C1CSC(c2ccco2)N1 (stereo unspecified) | inactive
35 | CN(C)c1ncc(C2=C(Cl)C(=O)C(N3CCCC3)=C(Cl)C2=O)s1 | inactive
36 | O=C1C=CC(=O)N1c1ccccc1N1C(=O)C=CC1=O | inactive
37 | CC1OC(CC(=O)O)CC2=C1C(=O)c1c(O)cccc1C2=O (stereo unspecified) | inactive
38 | Cc1c(Cl)sn(-c2ccc(Cl)cc2)c1=O | inactive
39 | CC(=O)Nc1ccc2sn(-c3ccccc3)c(=O)c2c1 | 643 nM
40 | O=C1C(SCCO)=C(SCCO)C(=O)c2ccccc21 | inactive
41 | O=C(O)c1cccc(-n2sc3ccccc3c2=O)c1 | inactive
42 | Cc1ccc(C)c(-n2sc3ccc(F)cc3c2=O)c1 | inactive
43 | CSc1nc(N)c(N=Nc2ccc([As](=O)(O)O)cc2)c(=O)[nH]1 | inactive
44 | Cc1cc(N)c2cc(NC(=O)/C=C/c3ccccc3Cl)ccc2n1 | inactive
45 | O=c1c2ccccc2sn1-c1ccc(F)cc1 | inactive
46 | O=c1c2ccc(F)cc2sn1-c1ccccc1 | inactive
